# Test results: patent US8633005B2, “Isocyclomaltooligosaccharide(s), isocyclomaltooligosaccharide-forming enzyme, their preparation and uses” (Hayashibara Co., Ltd., priority 2004, dated 2014)
# How the values were obtained:
# [1] = Amino-carbonyl reaction with glycine; format: physicochemical; conditions: 5% (w/v) saccharide + 1% (w/v) glycine, pH 7.0, 120° C., blank subtracted
# Protocol: ICG5, used in Experiment 15 and commercially available super high-grade glycine were dissolved in deionized water, and then admixed with phosphate buffer to make into an aqueous ICG5 solution containing 5% (w/v) of ICG5 and 1% (w/v) glycine, adjusted to pH 7.0. As a control, an aqueous α-cyclodextrin (α-CD) solution containing α-CD and glycine was prepared in the same manner using α-CD in place of ICG5. Four milliliters each of the solution was put in a glass tube, sealed and then heated at 120° C. for 30, 60, or 90 min. After cooling the solutions in ambient temperature, the degrees of coloring of the solutions were measured to estimate the degree of amino-carbonyl reaction. As a blank test, a solution containing glycine only was heated in the same manner. The degree of coloring was defined as an absorbance at 480 nm using a 1 cm-cell after subtracting the absorbance of the blank test.
# [2] = Reducing power by the Somogyi-Nelson method; format: physicochemical
# Excerpt: It was concluded that Saccharides I and II were substantially non-reducing saccharides.
# mice = experiment: Acute toxicity test, oral, mice; format: in vivo
# Excerpt: By using mice, ICG5 used in Experiment 15 was orally administrated to the mice for its acute toxicity test. […] Though not so accurate, the value of LD50 of ICG5 was 5 g/kg-mouse weight or higher.
# [3] = pH stability of ICM (ICG5 in buffers pH 2 to 10 heated at 100° C. for 24 hours); format: physicochemical; conditions: for Degree of coloring / Purity: 4% (w/v), 100° C. for 24 hours
# Protocol: (§1) ICG5, prepared from soluble starch by the method in Experiment 11 and purified to give a purity of 100% by the method in Experiment 1, was used as material. An aqueous ICG5 solution with a concentration of 5% (w/v) was prepared by dissolving ICG5 in deionized water. Then, 8 ml each of the resulting solution was pored into a glass tube, sealed closely, and then heated at 120° C. for 30 to 90 min. After cooling the solution, the degree of coloring of the solution was measured. Further, the purity of ICG5 in the solution was measured by HPLC. The degree of coloring was defined as an absorbance at 480 nm using a 1 cm-cell.
# ICG5, used in Experiment 15, was dissolved in various buffers to make into nine kinds of aqueous solutions containing 4% (w/v) of ICG5, adjusted to pH 2 to 10, as shown in Table 14. Eight milliliters of each solution was put in a glass tube, sealed and then heated at 100° C. for 24 hours. After cooling the solution, the degree of coloring and the purity of ICG5 of each solution were measured in the same manner in Experiment 15.
# [4] = Amino-carbonyl reaction with polypeptone; format: physicochemical; conditions: with 5% (w/v) polypeptone, 120° C., blank subtracted
# Protocol: ICG5 used in Experiment 15 and commercially available polypeptone, commercialized by Nihon Pharmaceutical Co., Ltd., Tokyo, Japan, were dissolved in deionized water to make into an aqueous solution containing […] and 5% (w/v) of polypeptone. As a control, an aqueous solution containing α-CD and polypeptone was prepared in the same manner using α-CD in place of ICG5. Four milliliters each of the solution was put in a glass tube, sealed and then heated at 120° C. for 30, 60, or 90 min. After cooling the solutions in ambient temperature, the degrees of coloring of the solutions were measured to estimate the degree of amino-carbonyl reaction. As a blank test, a solution containing polypeptone only was heated in the same manner. The degree of coloring was defined as an absorbance at 480 nm using a 1 cm-cell after subtracting the absorbance of the blank test.
# [5] = Thermal stability of ICM (ICG5 aqueous solution heated at 120° C.); format: physicochemical; conditions: for Degree of coloring / Purity: 5% (w/v) aqueous solution, 120° C.; for Purity: HPLC
# Protocol: as §1
# [6] = Clathrating action of ICM (amount of compound clathrated, gas-chromatography); format: physicochemical; conditions: 3-folds molar amount
# Protocol: ICG5 used in Experiment 15, was dissolved in deionized water to make into an aqueous solution containing 20% (w/v) of ICG5. Twenty milliliters of the aqueous solution was admixed with 3-folds amount, on a molar basis to ICG5, of either of four kinds of short chain alcohols, i.e., methanol, ethanol, propanol, and butanol; four kinds of short chain fatty acids, i.e., acetic acid, propionic acid, n-butyric acid, and n-valeic acid; and four kinds of aromatic compounds, i.e., benzyl alcohol, phenethyl alcohol, 4-phenyl-1-propanol, and o-cresol; and then stirred the mixture to homogeneity for allowing ICG5 to clathrate the compound. Successively, each solution was filtrated, and the resulting filtrate was freeze-dried to remove unclathrated compound. In order to measure the amount of compound clathrated in the freeze-dried product, the amount of each compound in each freeze-dried product was determined by gas-chromatography. Alpha-CD was used as a control and subjected to the similar test.
# Excerpt for pancreas α-amylase: (§2) 43, 23-29 (1990), the digestibility of ICM by salivary α-amylase, artificial gastric juice, pancreas amylase, and small intestinal enzymes were investigated using ICG5, used in Experiment 15. […] In Table 18, the digestion (%) means a value calculated by the formula: Digestion (%)=(The amount of reducing saccharides/The amount of the total saccharides)×100 , in respective reaction described above.
# Excerpt for small intestinal enzymes: as §2
smiles,measurement,setting,value
"OCC1OC2OC3C(CO)OC(OC4C(CO)OC(OC5C(CO)OC(OCC6OC(OC1C(O)C2O)C(O)C(O)C6O)C(O)C5O)C(O)C4O)C(O)C3O [ICG5, cyclo{→6)-α-D-glucopyranosyl-(1→4)-α-D-glucopyranosyl-(1→4)-α-D-glucopyranosyl-(1→4)-.α-D-glucopyranosyl-(1→4)α-D-glucopyranosyl-(1→}]",Degree of coloring,[1]; heating time 0 min,0.00 A480 nm
same,Degree of coloring,[1]; heating time 30 min,0.00 A480 nm
same,Degree of coloring,[1]; heating time 60 min,0.00 A480 nm
same,Degree of coloring,[1]; heating time 90 min,0.00 A480 nm
same,Reducing power,[2],less than the measurable limit
same,Mortality,"mice; oral, highest possible dose",no mouse died
same,LD50,"mice; orally administrated, though not so accurate",≥ 5 g/kg-mouse weight
same,Digestion,pancreas α-amylase,0%
same,Hydrolysis,"[3]; pH 2, 100° C. for 24 hours",completely hydrolyzed
same,Degree of coloring,"[3]; pH 2.0, Acetate buffer",0.00 A480 nm
same,Purity,"[3]; pH 2.0, Acetate buffer",0%
same,Hydrolysis,"[3]; pH 3, 100° C. for 24 hours",≥ 50
same,Degree of coloring,"[3]; pH 3.0, Acetate buffer",0.00 A480 nm
same,Purity,"[3]; pH 3.0, Acetate buffer",34.9%
same,Hydrolysis,"[3]; pH 4, 100° C. for 24 hours",slightly hydrolyzed
same,Degree of coloring,"[3]; pH 4.0, Acetate buffer",0.00 A480 nm
same,Purity,"[3]; pH 4.0, Acetate buffer",89.9%
same,Degree of coloring,"[3]; pH 5.0, Acetate buffer",0.00 A480 nm
same,Purity,"[3]; pH 5.0, Acetate buffer",99.4%
same,Degree of coloring,"[3]; pH 6.0, Acetate buffer",0.00 A480 nm
same,Purity,"[3]; pH 6.0, Acetate buffer",100%
same,Degree of coloring,"[3]; pH 7.0, Borate buffer",0.00 A480 nm
same,Purity,"[3]; pH 7.0, Borate buffer",100%
same,Degree of coloring,"[3]; pH 8.0, Ammonium buffer",0.00 A480 nm
same,Purity,"[3]; pH 8.0, Ammonium buffer",100%
same,Degree of coloring,"[3]; pH 9.0, Ammonium buffer",0.01 A480 nm
same,Purity,"[3]; pH 9.0, Ammonium buffer",100%
same,Degree of coloring,"[3]; pH 10.0, Ammonium buffer",0.01 A480 nm
same,Purity,"[3]; pH 10.0, Ammonium buffer",99.6%
same,Hydrolysis,"[3]; pH range of 5 to 10, 100° C. for 24 hours",substantially not hydrolyzed
same,Degree of coloring,[4]; heating time 0 min,0.00 A480 nm
same,Degree of coloring,[4]; heating time 30 min,0.02 A480 nm
same,Degree of coloring,[4]; heating time 60 min,0.02 A480 nm
same,Degree of coloring,[4]; heating time 90 min,0.02 A480 nm
same,Digestion,small intestinal enzymes,0.2%
same,Degree of coloring,[5]; heating time 0 min,0.00 A480 nm
same,Purity,[5]; heating time 0 min,100%
same,Degree of coloring,[5]; heating time 30 min,0.00 A480 nm
same,Purity,[5]; heating time 30 min,100%
same,Degree of coloring,[5]; heating time 60 min,0.00 A480 nm
same,Purity,[5]; heating time 60 min,100%
same,Degree of coloring,[5]; heating time 90 min,0.01 A480 nm
same,Purity,[5]; heating time 90 min,100%
same,Thermal stability,[5]; aqueous solution heated to 120° C.,stable under the heating condition
same,Amount of compound clathrated,[6]; objective compound: 4-Phenyl 1-propanol (aromatic compound),225.2 mg/g-freeze-dried product
same,Amount of compound clathrated,[6]; objective compound: Acetic acid (short chain fatty acid),82.4 mg/g-freeze-dried product
same,Amount of compound clathrated,[6]; objective compound: Benzyl alcohol (aromatic compound),61.9 mg/g-freeze-dried product
same,Amount of compound clathrated,[6]; objective compound: Butanol (short chain alcohol),82.7 mg/g-freeze-dried product
same,Amount of compound clathrated,[6]; objective compound: Ethanol (short chain alcohol),57.6 mg/g-freeze-dried product
same,Amount of compound clathrated,[6]; objective compound: Methanol (short chain alcohol),33.5 mg/g-freeze-dried product
same,Amount of compound clathrated,[6]; objective compound: Phenethyl alcohol (aromatic compound),10.0 mg/g-freeze-dried product
same,Amount of compound clathrated,[6]; objective compound: Propanol (short chain alcohol),69.2 mg/g-freeze-dried product
same,Amount of compound clathrated,[6]; objective compound: Propionic acid (short chain fatty acid),91.4 mg/g-freeze-dried product
same,Amount of compound clathrated,[6]; objective compound: n-Butyric acid (short chain fatty acid),69.9 mg/g-freeze-dried product
same,Amount of compound clathrated,[6]; objective compound: n-Valeic acid (short chain fatty acid),48.3 mg/g-freeze-dried product
same,Amount of compound clathrated,[6]; objective compound: o-Cresol (aromatic compound),151.5 mg/g-freeze-dried product
